Source: US8097656B2, “Nitrogenated trans-stilbene analogs, method for the obtention and medical applications thereof” (Dominion Pharmakine S.L, priority 2005, dated 2012)
Entries after “also recorded” stand apart in the source; their conditions may differ.

Columns and labels:
MB16 cells [1] = experiment: MB16 cell adhesion to immobilized VCAM-1 substrates (H2O2-treated); type: cell-based, murine; details: 2.5 μM preincubation; 10 μM H2O2
Experimental: MB16 and MA375 cell adhesion to immobilized VCAM-1 substrates. The MB16 and MA375 cell adhesion tests were conducted on immobilized VCAM-1 substrates (2 μg/ml of recombinant human VCAM-1, R&D Systems, Minneapolis, Minn.) on 96-well plates. To avoid non-specific attachment to the plastic, 0.5% BSA dissolved in PBS was added to the wells for 2 hours at ambient temperature prior to conducting the adhesion test. The melanoma cells were preincubated with 2.5 μM of the compounds to be tested (azaresveratrol, see Table 2; JE1:2, JE2:1 and JE2:2 see FIG. 2; JEM2:2-01 and JEM2:1-02 see FIG. 7; YEF02, YEF03, YEF07, YEF05B, YEF07B and YEF05H. see FIG. 9) for 30 minutes, to which 10 μM of hydrogen peroxide or 10 ng/ml of IL-18 were added, respectively for a further 24 hours. Afterward, the cells were washed and marked with the BCECF-AM fluorescent probe (carboxyfluorescein, 2′,7′-bis-(2-carboxy-ethyl)-5-(6)carboxyfluorescein aminoxymethyl ester). Thirty minutes later, a washing process was performed to remove the excess fluorochromium, the number of viable cells being calculated by means of the trypan blue exclusion test and (5×10^4 cells/well) being added to the 96-well plate. The co-culture plates were incubator-incubated at 37° C. for 1 hours. The percentage of cellular adhesion was calculated by measuring the fluorescence emitted by the adhered cells (obtained after washing the plate) with regard to the fluorescence emitted by the total number of cells added. The results in the figures are given in values related to the adhesion percentages of the untreated melanoma cells.

PGE2 = experiment: EIA of PGE2 in supernatant of VEGF-treated HSE cells (evidence of cyclooxygenase-2 activity); type: cell-based, mouse; details: 1, 2.5 and 10 μM; 10 ng/ml VEGF for 4 hours
Experimental: PGE2 determination in HSE cell supernatants (see FIG. 11). Primary cultured HSE cells were incubated in the presence or absence of increasing concentrations (1, 2.5 and 10 μM) of the compounds JE2:2, YEF07 and YEF05B for 30 minutes. In following, 10 ng/ml of recombinant murine VEGF or the same volume of saline solution was added, 4 hours after which supernatants were collected and the PGE2 concentration determined by enzymatic immunoassay (EIA) supplied by Amersham Biosciences (Uppsala, Sweden).

HSE cells [2] = experiment: MB16 cell adhesion to HSE cells treated with MC-MB16; type: cell-based, mouse; details: 2.5 μM prior to MC-MB16
Description: (§1) Isolation of primary murine cultures of hepatic sinusoidal endothelial (HSE) cells. The hepatic sinusoidal cells were isolated from C57BL/6J mice (males, aged 6-8 weeks) supplied by IFFA Credo (L'Arbreole, France), followed by a purification and identification of the HSE cells following the protocol described by Vidal-Vanaclocha et al. (1993) [Vidal-Vanaclocha, F., Rocha, M., Asumendi, A. & Barbera-Guillem, E. Isolation and enrichment of two sublobular compartment-specific endothelial cell subpopulations from liver sinusoids. Hepatology, 1993, 18, 328-339]. Stable primary cultures of HSE cells were obtained after seeding the cells on a type I collagen substrate (Sigma Chemicals Co, St Louis, Mo.), and the cultures were maintained in DMEM-HCO^3−, penicillin (100 U/ml), streptomycin (100 μg/ml), supplemented with 10% fetal bovine serum at 37° C. with 5% CO2 in atmosphere at 98% humidity.
MB16 cell adhesion to the monolayer of HSE cells in culture. The endothelial cells were isolated 24 hours prior to the adhesion test and were seeded on 24-well plate, maintaining them a minimum of 4 hours in serum-free medium before incubating them with DMEM in the presence or not of MC-MB16 for 8 hours. The synthesized compounds (JE2:2 see FIG. 6; JEM2:2-01 and JEM2:1-02 see FIG. 8A; YEF02, YEF03, YEF07, YEF05B, YEF07B and YEF05H see FIG. 10) were added to a 2.5 μM concentration prior to the MC-MB16. On the other hand, the MB16 cells were marked with 40 μg/ml from the fluorescent probe BCECF-AM (carboxyfluorescein, 2′,7′-bis-(2-carboxy-ethyl)-5-(6)carboxyfluorescein aminoxymethyl ester) supplied by Molecular Probes Inc. (Oregon, USA). Afterward, a washing process was performed with DMEM-HCO3−—to remove the excess fluorochromium, the number of viable cells being calculated by means of the trypan blue exclusion test and resuspended to a concentration of 2×10^5 cells/ml. Lastly, 1 ml of the MB16 cell suspension was added to each well on the primary HSE cell culture plate. The co-culture plates were incubator-incubated at 37° C. for 8 minutes. The percentage of cellular adhesion was calculated by means of the a fluorescence measurement system described by Vidal-Vanaclocha et al. (1994) [Vidal-Vanaclocha, F., Amézaga, C., Asumendi, A., Kaplanski, G. & Dinarello, C. A. Interleukin-1 receptor blockade reduces the number and size of murine B16 melanoma hepatic metastases. Cancer Research, 1994, 54, 2667-2672]. In the experiments with IL-18, the MB16 cells were incubated with 10 ng/ml of IL-18 for 4 hours prior to being marked with BCECF-AM and were adhered to the HSE cell plate. The results in the figures are given as values related to the adhesion percentages of the untreated HSE cells.

[3] = Water solubility (statement); type: physicochemical
MB16 cells [4] = experiment: MB16 hepatic metastasis test after intrasplenic injection; type: in vivo, C57BL/6J mice; details: JE2:2 intraperitoneal 2.5 mg/kg, 1 hour prior and days 2, 3, 4, 8, 9, 10, 11; day 12; vs PBS; P<0.01
MB16 cells [5] = experiment: Hydrogen peroxide production from MB16 cells (DCFH-DA probe); type: cell-based, murine
Experimental: (§2) Determination of hydrogen peroxide production from HSE and MB16 cells. Primary cultures of HSE cells were treated with 10 μg/ml of the DCFH-DA fluorescent probe for 30 minutes at 37° C. and were washed to eliminate the excess fluorochromium. Afterward, fresh culture medium was added thereto in the presence or absence of 2.5 μM of the compounds JE1:2, JE2:1 or JE2:2 and the production of H202 over the course of time was determined (see FIG. 5). The hydrogen peroxide produced by the cells oxidizes the probe, converting it into a fluorescent molecule. Thus, the cell fluorescence produced by the accumulation of DCF made it possible to detect the intracellular production of hydrogen peroxide. In each cell well, it was possible to determine the relative fluorescence value (arbitrary units of fluorescence brightness) in relation to the quantity of hydrogen peroxide produced at different incubation times. In the experiments with MB16 cells, once the cells had been marked with the DCFH-DA probe, they were incubated for 300 minutes with 2.5 μM of the azaresveratrol or JE2:2 compounds, 10 ng/ml of IL-18 (FIG. 4) then having been added.

HSE cells [6] = experiment: Hydrogen peroxide production from primary cultured HSE cells (DCFH-DA probe); type: cell-based, mouse; details: 2.5 μM
Description: as §1, §2

MB16 cells [7] = experiment: In vitro proliferation of MB16 cells treated with recombinant IL-18; type: cell-based, murine; details: 2.5 μM pretreatment; 10 ng/ml IL-18; 48 h
Experimental: In vitro Melanoma cell proliferation test. The MB16 or MA375 cells are seeded (2500 cells/well/200 μl) in DMEM medium (Dulbecco's modified Eagle's medium) with 10% fetal bovine serum (FBS). Once adhered, they were washed to remove the FBS and fresh medium was added in the presence or absence of 2.5 μM of the compounds to be tested. In the experiments with MA375, the compound azaresveratrol (see Table 4) was used, and in the experiments with MB16 cells, the compounds azaresveratrol, JE1:2, JE2:1 or JE2:2 (see FIG. 3) were used. Thirty (30) minutes later, 10 ng/ml of IL-18 or HSC-conditioned media (murines in the case of B16 and human ones in the case of A375) were added to some wells, and the plates were incubated for 48 hours at 37° C. with 5% CO2 Upon completion of the incubation period, the cells were fixed with […] for 1 hours, were washed and were allowed to dry in the incubator at 50° C. for 30 minutes. In following, 100 μl/well of sulforhodamine 101 (0.4% p/v) was added and they were incubated at room temperature in the dark for 30 minutes. After washing, 200 μl/well of Tris base 10 mM pH 10.5 was added and the fluorescence was measured by means of a 530 nm, 620 nm emission excitation filter plate fluorescence reader. The number of cells was calculated by extrapolating said fluorescence data on a standard straight line previously obtained based on the fluorescence emitted in an increasing number of cells.

TNF-alpha = experiment: ELISA of TNF-alpha in supernatant of MC-MB16-treated HSE cells; type: cell-based, mouse; details: 2.5 μM for 30 minutes before MC-MB16; 8 hours
Experimental: ELISA determination of the TNF-alpha concentration in the supernatant from MC-MB16-treated HSE cells. Primary cultured HSE cells were incubated in the presence or absence of 2.5 μM of the synthesized compounds (JEM2:2-01 and JEM2:1-02 see FIG. 8B) for 30 minutes, after which MB16-conditioned media were added. Eight (8) hours later, the supernatant from cultured endothelial cells were collected, filtered through 0.22 μm membranes and the concentration of TNF-alpha was then assayed using the ELISA test (R&D Systems).

SMILES	Increase in H2O2-treated MB16 cell adhesion to immobilized VCAM-1 (in words) (MB16 cells [1])	Increase in endothelial secretion of PGE2 after VEGF (in words) (PGE2)	Increase in adhesion of MB16 cells to HSE activated by MC-MB16 / proadhesive response of HSE (in words) (HSE cells [2])	Endothelial (HSE) production of H2O2 (in words) (HSE cells [6])	Increase in the number of MB16 cells by IL-18 (proliferation, in words) (MB16 cells [7])	other results
COc1cc(OC)cc(-c2cc3c(OC)cc(OC)cc3n2C(=O)OC(C)(C)C)c1 [YEF05B, 4,6-Dimethoxy-2-(3,5-dimethoxyphenyl)-1H-indole-1-tert-butyl carboxylate]	significantly (P<0.01) inhibited	significantly inhibited	significantly (P<0.01) reduced	–	–	–
COc1cc(OC)cc(-c2cc3c(OC)cc(OC)cc3[nH]2)c1 [YEF07, 4,6-Dimethoxy-2-(3,5-dimethoxyphenyl)-1H-indole]	significantly (P<0.01) inhibited	significantly inhibited	significantly (P<0.01) reduced	–	–	–
COC(=O)c1[nH]c(-c2cc(O)cc(O)c2)cc1-c1cc(O)cc(O)c1 [JE2:2, 3,5-bis(3,5-Dihydroxyphenyl)-1H-pyrrole-2-methyl carboxylate]	significantly (P<0.01) inhibits; also recorded: greatest inhibitory effect	significantly inhibited; also recorded: dose-response	significantly (P<0.01) reduced	inhibited	reduced said increase; also recorded: most highly effective	Water solubility (in words) [3]: highly water-soluble; Reduction of the mean density of hepatic metastasis (MB16 cells [4]): 87%; Reduction of the volume occupied by metastatic tissue (MB16 cells [4]): 90%; Increase of H2O2 production of MB16 cells in response to IL-18 (in words) (MB16 cells [5]; 2.5 μM prior to IL-18): completely abrogated; H2O2 production of MB16 cells in basal conditions (in words) (MB16 cells [5]; 2.5 μM, no IL-18): inhibited
COC(=O)c1[nH]c(-c2cc(O)cc(O)c2)cc1-c1ccc(O)cc1 [JE2:1, 5-(3,5-Dihydroxyphenyl)-3-(4-hydroxyphenyl)-1H-pyrrole-2-methyl carboxylate]	significantly (P<0.01) inhibits	–	–	inhibitory effect	reduced said increase	–
COC(=O)c1[nH]c(-c2cc(OC)cc(OC)c2)cc1-c1cc(OC)cc(OC)c1 [JEM2:2-01, 3,5-bis(3,5-Dimethoxyphenyl)-1H-pyrrole-2-methyl carboxylate]	completely abrogated	–	significantly (P<0.01) reduced; also recorded: greater inhibition	–	–	Endothelial production of TNF-alpha induced by MC-MB16 (in words) (TNF-alpha): inhibits
Oc1ccc(O)c(-c2cc3c(O)cc(O)cc3[nH]2)c1 [YEF05H, 2-(2,5-Dihydroxyphenyl)-1H-indole-4,6-diol]	significantly (P<0.01) inhibited	–	significantly (P<0.01) reduced	–	–	–
COC(=O)c1[nH]c(-c2ccc(O)cc2)cc1-c1cc(O)cc(O)c1 [JE1:2, 3-(3,5-Dihydroxyphenyl)-5-(4-hydroxyphenyl)-1H-pyrrole-2-methyl carboxylate]	significantly (P<0.01) inhibits	–	–	inhibitory effect	reduced said increase	–
COc1ccc(OC)c(-c2cc3c(OC)cc(OC)cc3n2C(=O)OC(C)(C)C)c1 [YEF07B, 4,6-Dimethoxy-2-(2,5-dimethoxyphenyl)-1H-indole-1-tert-butyl carboxylate]	significantly (P<0.01) inhibited	–	significantly (P<0.01) reduced	–	–	–
